pIC50: −log10 of the molar value.
Biological target: T1, GRK6, recombinant full-length GST-tagged human protein (Homo sapiens, UniProt P43250)
T1 construct: Enzyme: 20 nM GRK6, recombinant full-length GST-tagged human protein; GST
Assay: GRK6 assay, IC50 determination (8-point concentration-response)
Type: biochemical
Settings: Series 1 (Table 11); 20 nM GRK6, ATP 12 μM (Km), Peptide 216 1 μM, incubation 7 h
Procedure: The following assay conditions were used.
Buffer: 50 mM TRIS-HCl, pH 7.5, 5 mM MgCl2, 2 mM DTT, 0.01% Triton X-100, 10 μM Na3VO4, 10 μM b-GP, 1% DMSO
Enzyme: 20 nM GRK6, recombinant full-length GST-tagged human protein
Peptide substrate (Peptide 216): 1 μM
One hundred two compounds (1-1-1-102) were further characterized by determining IC50 values in a GRK6 assay. This screen has been previously described in WO 2013/063458, which is incorporated by reference in its entirety herein. Briefly, the following activities were performed: 8-point concentration-response determinations in singlicate wells (top concentration=60 μM, 3-fold dilution steps); Repeat tests for QC failed or inconclusive compounds; and Repeat tests (titrate down) for compounds with >50% inhibition at all tested concentrations.
Twelve compounds (2-1-2-12) were further characterized by determining the IC50 values in a GRK6 assay. This screen has been previously described in WO 2013/063458, which is incorporated by reference in its entirety herein. Specific activities were performed as described above (Example 18).
Thirty-six compounds (3-1-3-36) were further characterized by determining the IC50 values in a GRK6 assay. This screen has been previously described in WO 2013/063458, which is incorporated by reference in its entirety herein. Specific activities were performed as described above (Example 18).
Fifty-four compounds (4-1-4-54) were further characterized by determining the IC50 values in a GRK6 assay. This screen has been previously described in WO 2013/063458, which is incorporated by reference in its entirety herein. Specific activities were performed as described above (Example 18).

T1 sequence (P43250 whole entry): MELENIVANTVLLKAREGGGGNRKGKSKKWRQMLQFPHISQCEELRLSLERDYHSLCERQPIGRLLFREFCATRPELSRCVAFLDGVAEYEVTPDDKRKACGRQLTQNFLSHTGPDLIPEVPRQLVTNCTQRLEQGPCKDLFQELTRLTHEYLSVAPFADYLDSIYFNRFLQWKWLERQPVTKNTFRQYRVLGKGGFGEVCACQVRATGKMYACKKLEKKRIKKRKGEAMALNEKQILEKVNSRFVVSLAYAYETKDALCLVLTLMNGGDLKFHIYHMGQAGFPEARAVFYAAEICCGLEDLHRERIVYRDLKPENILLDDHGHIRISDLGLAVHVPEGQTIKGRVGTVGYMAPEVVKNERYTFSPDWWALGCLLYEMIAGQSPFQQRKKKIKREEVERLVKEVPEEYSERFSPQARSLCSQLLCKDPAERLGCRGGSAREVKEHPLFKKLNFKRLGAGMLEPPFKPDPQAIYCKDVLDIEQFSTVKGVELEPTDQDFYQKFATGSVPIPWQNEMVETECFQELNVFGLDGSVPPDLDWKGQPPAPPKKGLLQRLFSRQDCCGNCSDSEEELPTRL

Row | pIC50 | SMILES
1 | 6.88 | O=C(O)CSc1nnc(-c2ccc(-c3ccc4[nH]c5ccccc5c4c3)o2)[nH]1 [Compound 1-3]
2 | 6.78 | N#Cc1ccc(COc2cccc(-c3ccc(-c4nnc(SCC(=O)O)[nH]4)o3)c2)cc1 [Compound 1-7]
3 | 5.69 | O=C(O)CSc1nnc(-c2ccc(Cn3c4ccccc4c4ccccc43)o2)[nH]1 [Compound 1-89]
4 | 5.36 | Cc1n[nH]c(C)c1-c1ccc(-c2nnc(SCC(=O)O)[nH]2)o1 [Compound 1-99]
5 | 6.00 | O=C(O)CSc1nnc(-c2ccc(-c3ccccc3)o2)[nH]1 [Compound 1-73]
6 | 5.84 | O=C(O)CSc1nnc(-c2ccc(-c3cccc(OCc4ccc(OC(F)(F)F)c(Cl)c4)c3)o2)[nH]1 [Compound 1-84]
7 | 6.63 | O=C(O)CSc1nnc(-c2ccc(-c3cnc4ccccc4c3)o2)[nH]1 [Compound 1-15]
8 | 6.44 | CCOc1ccc2ccc(-c3ccc(-c4nnc(SCC(=O)O)[nH]4)o3)cc2c1 [Compound 1-38]
9 | 6.49 | COc1ccc2cc(-c3oc(-c4nnc(SCC(=O)O)[nH]4)cc3C#CCO)ccc2c1 [Compound 1-31]
10 | 6.67 | Cn1ccc2ccc(-c3ccc(-c4nnc(SCC(=O)O)[nH]4)o3)cc21 [Compound 1-14]
11 | 6.55 | O=C(O)CSc1nnc(-c2ccc(-c3ccc(Oc4ccccc4)cc3)o2)[nH]1 [Compound 1-25]
12 | 6.44 | O=C(O)CSc1nnc(-c2ccc(-c3cccc(OCc4ccc(Cl)c(Cl)c4)c3)o2)[nH]1 [Compound 1-40]
13 | 5.85 | Nc1cccc(-c2ccc(-c3nnc(SCC(=O)O)[nH]3)o2)c1 [Compound 1-83]
14 | 5.69 | O=C(O)CSc1nnc(-c2ccc(-c3ccc(C(F)(F)F)nc3)o2)[nH]1 [Compound 1-90]
15 | 5.66 | Nc1cc(-c2ccc(-c3nnc(SCC(=O)O)[nH]3)o2)ccn1 [Compound 1-92, 2-((5-(5-(2-aminopyridin-4-yl)furan-2-yl)-4H-1,2,4-triazol-3-yl)thio)acetic acid]
16 | 5.51 | O=C(O)CSc1nnc(-c2ccc(-c3ccccc3C(F)(F)F)o2)[nH]1 [Compound 1-94]
17 | 5.68 | O=C(O)CSc1nnc(-c2ccc(-c3ccc(Cl)nc3)o2)[nH]1 [Compound 1-91]
18 | 5.92 | COc1ccc(-c2ccc(-c3nnc(SCC(=O)O)[nH]3)o2)cc1 [Compound 1-81]
19 | 5.92 | O=C(O)CSc1nnc(-c2ccc(-c3ccc[nH]3)o2)[nH]1 [Compound 1-80]
20 | 6.57 | O=C(O)CSc1nnc(-c2ccc(-c3ccc4cc(-c5ccccc5)[nH]c4c3)o2)[nH]1 [Compound 1-22]

Row | pIC50 | SMILES
21 | 6.86 | O=C(O)CSc1nnc(-c2ccc(-c3cccc4[nH]c(-c5ccccc5)cc34)o2)[nH]1 [Compound 1-5]
22 | 6.01 | O=C(O)CSc1nnc(-c2ccc(-c3ccc4c(c3)CCC(=O)N4)o2)[nH]1 [Compound 1-72]
23 | 6.56 | O=C(O)CSc1nnc(-c2ccc(-c3cccc(OCc4ccccc4)c3)o2)[nH]1 [Compound 1-23]
24 | 6.30 | O=C(O)CSc1nnc(-c2ccc(-c3cccc(OCc4cccc(C(F)(F)F)c4)c3)o2)[nH]1 [Compound 1-52]
25 | 5.43 | Cn1cc(-c2ccc(-c3nnc(SCC(=O)O)[nH]3)o2)cn1 [Compound 1-98]
26 | 5.08 | COC(=O)CSc1nnc(-c2ccc(C#Cc3ccc4ccccc4c3)o2)[nH]1 [Compound 1-102]
27 | 6.59 | O=C(O)CSc1nnc(-c2ccc(-c3cc(Cl)cc(OCc4ccccc4)c3)o2)[nH]1 [Compound 1-20]
28 | 5.88 | O=C(O)CSc1nnc(-c2ccc(-c3ccc([N+](=O)[O-])cc3)o2)[nH]1 [Compound 1-82]
29 | 6.21 | O=C(O)CSc1nnc(-c2ccc(-c3cccc([N+](=O)[O-])c3)o2)[nH]1 [Compound 1-59]
30 | 6.34 | COc1ccc2cc(-c3oc(-c4nnc(SCC(=O)O)[nH]4)cc3Br)ccc2c1 [Compound 1-49]
31 | 6.23 | O=C(O)CSc1nnc(-c2ccc(-c3cccc(C(F)(F)F)c3)o2)[nH]1 [Compound 1-56]
32 | 6.44 | O=C(O)CSc1nnc(-c2ccc(-c3cc(O)cc(F)c3)o2)[nH]1 [Compound 1-39]
33 | 6.37 | O=C(O)CSc1nnc(-c2ccc(-c3ccc4occc4c3)o2)[nH]1 [Compound 1-47]
34 | 6.38 | NS(=O)(=O)c1cccc(-c2ccc(-c3nnc(SCC(=O)O)[nH]3)o2)c1 [Compound 1-45]
35 | 6.08 | Cc1cc2cc(-c3ccc(-c4nnc(SCC(=O)O)[nH]4)o3)ccc2n1C [Compound 1-69]
36 | 5.17 | O=C(O)CSc1nnc(-c2ccc(C(c3ccccc3)c3ccccc3)o2)[nH]1 [Compound 1-101]
37 | 6.76 | O=C(O)CSc1nnc(-c2ccc(-c3ccc(Cl)c(Cl)c3)o2)[nH]1 [Compound 1-9]
38 | 6.20 | O=C(O)CSc1nnc(-c2ccc(-c3cccc(OCc4ccc(C(F)(F)F)cc4)c3)o2)[nH]1 [Compound 1-60]
39 | 6.62 | COc1ccc2cc(-c3ccc(-c4nnc(SCC(=O)O)[nH]4)o3)ccc2c1 [Compound 1-16]
40 | 6.44 | O=C(O)CSc1nnc(-c2ccc(-c3cccc(Cl)c3)o2)[nH]1 [Compound 1-36]

Same assay, conditions: Series 2 (Table 12); conditions as Example 18

Row | pIC50 | SMILES
41 | 6.40 | O=C(O)CSc1cc(-c2ccc(-c3ccc(Cl)c(Cl)c3)s2)[nH]n1 [Compound 2-2]
42 | 5.89 | O=C(O)CSc1cc(-c2ccc(-c3ccc4c(c3)[nH]c3ccccc34)o2)[nH]n1 [Compound 2-9]
43 | 6.22 | COc1cc(Cl)cc(-c2ccc(-c3cc(SCC(=O)O)n[nH]3)s2)c1 [Compound 2-4]

Same assay, conditions: Series 3 (Table 13); conditions as Example 18

Row | pIC50 | SMILES
44 | 5.92 | COc1cc(Cl)cc(-c2cc(-c3nnc(SCc4nnn[nH]4)[nH]3)cc([N+](=O)[O-])c2)c1 [Compound 3-7]
45 | 5.48 | Fc1cc(F)cc(-c2ccc(-c3nnc(SCc4nnn[nH]4)[nH]3)o2)c1 [Compound 3-18]
46 | 5.25 | Fc1cccc(-c2ccc(-c3nnc(SCc4nnn[nH]4)[nH]3)o2)c1 [Compound 3-27]
47 | 5.42 | CC(=O)Nc1cccc(-c2ccc(-c3nnc(SCc4nnn[nH]4)[nH]3)o2)c1 [Compound 3-23]
48 | 4.77 | Cc1cccc(-c2nnc(SCc3nnn[nH]3)[nH]2)c1 [Compound 3-35, 5-(((5-(m-tolyl)-1H-1,2,4-triazol-3-yl)thio)methyl)-1H-tetrazole]
49 | 5.04 | CN(C)S(=O)(=O)c1cccc(-c2ccc(-c3nnc(SCc4nnn[nH]4)[nH]3)o2)c1 [Compound 3-34]
50 | 5.26 | Fc1cccc(-c2ccc(-c3nnc(SCc4nnn[nH]4)[nH]3)o2)c1F [Compound 3-26]
51 | 5.63 | c1cnc2c(-c3ccc(-c4nnc(SCc5nnn[nH]5)[nH]4)o3)cccc2c1 [Compound 3-14]
52 | 5.80 | c1cc2ccc(-c3ccc(-c4nnc(SCc5nnn[nH]5)[nH]4)o3)cc2[nH]1 [Compound 3-12]
53 | 5.44 | N#Cc1cccc(-c2ccc(-c3nnc(SCc4nnn[nH]4)[nH]3)o2)c1 [Compound 3-20]
54 | 5.42 | CNS(=O)(=O)c1ccc(-c2ccc(-c3nnc(SCc4nnn[nH]4)[nH]3)o2)cc1 [Compound 3-22]
55 | 5.82 | O=c1[nH]c2ccc(-c3ccc(-c4nnc(SCc5nnn[nH]5)[nH]4)o3)cc2[nH]1 [Compound 3-10]

Same assay, conditions: Series 4 (Table 14); conditions as Example 18

Row | pIC50 | SMILES
56 | < 4.00 | Cc1nc(-c2nnc(SCC(=O)O)[nH]2)c[nH]1 [Compound 4-52]
57 | 5.20 | O=C(O)CSc1nnc(-c2c[nH]nc2-c2ccccc2)[nH]1 [Compound 4-15]
58 | 5.39 | O=C(O)CSc1nnc(-c2cncc(Br)c2)[nH]1 [Compound 4-12]
59 | < 4.00 | Cc1ncsc1-c1nnc(SCC(=O)O)[nH]1 [Compound 4-51]
60 | 4.08 | CCc1nc(C)c(-c2nnc(SCC(=O)O)[nH]2)[nH]1 [Compound 4-36]
61 | 5.18 | O=C(O)CSc1nnc(-c2ccc(-c3ccccn3)s2)[nH]1 [Compound 4-16]
62 | 5.02 | Nc1ncc(-c2nnc(SCC(=O)O)[nH]2)cn1 [Compound 4-21]
63 | 4.89 | COc1cncc(-c2nnc(SCC(=O)O)[nH]2)c1 [Compound 4-24]
64 | 4.89 | COc1ccc(-c2nnc(SCC(=O)O)[nH]2)cn1 [Compound 4-26]
65 | 5.90 | O=C(O)CSc1nnc(-c2ccc(-c3ccccc3)s2)[nH]1 [Compound 4-5]
66 | < 4.00 | NC(=O)Cn1cc(-c2nnc(SCC(=O)O)[nH]2)c2ccccc21 [Compound 4-39]
67 | 5.44 | O=C(O)CSc1nnc(-c2cnc(-c3ccccc3)s2)[nH]1 [Compound 4-11]
68 | < 4.00 | O=C(O)CSc1nnc(-c2cc3cccc4c3n(c2=O)CC4)[nH]1 [Compound 4-42]
69 | < 4.27 | O=C(O)CSc1nnc(-c2ccc(C(F)(F)F)nc2)[nH]1 [Compound 4-48]

Source: US9902739B2, “Small molecule inhibitors of G protein coupled receptor 6 kinases polypeptides” (Mayo Foundation for Medical Education and Research, priority 2014, dated 2018)
